The text below walks through data of article PMC4579270, “Identification and Characterization of an Irreversible Inhibitor of CDK2” (Chemistry & Biology, 2015).

Holding throughout (test): Dundee protein kinase screen
Holding throughout (assay type): biochemical

In one test the target is CDK9-Cyclin T1 (Homo sapiens, UniProt P50750). To be noted: CDK9-Cyclin T1, 1µM; read-out: %Remaining activity at 1µM NU6300. The method, then: (§1) Prior to determining its cellular activity, we carried out a screen to assess its selectivity against a panel of 131 protein kinases under conditions that would not distinguish between a reversible or irreversible mode of action. […] These 13 kinases and 29 additional kinases, selected for their known sensitivity to other inhibitors within the purine series, were then tested in a modified screening format in which the assay was repeated following a 4-hr pre-incubation (Table S3B). […] However, conformational flexibility around the active site may promote such an interaction with a residue from another part of the structure ([Martin et al., 2012]).
(§2) Table S3, Related to Figure 4. NCL-0006300 protein kinase selectivity. (A) NU6300 was tested at a single concentration of 1µM against 131 protein kinases present in a Dundee protein kinase screen (Bain et al., 2007). Values given are % activity remaining and are the average of duplicate measurements: 0-25% (red), 26-50% (yellow), 51-80% (black) and above 81% (green). The kinase domain sequences (as defined by UniProt) of […]
(§3) have a lysine residue at a position close to CDK2 Lys88 or Lys89. However, in the structure of tyrosine-protein kinase BTK (PDB ID: 3GEN) the residue equivalent to CDK2 Asp86 is Cys481 and therefore there is the potential for a covalent adduct to be formed through this side chain. Ephrin type-B receptor 3 (UniProt entry P54753) also encodes a cysteine residue (Cys717) that by sequence alignment would be predicted to be close to the CDK2 lysine pair. (B) Selected kinases were re-tested in the Dundee kinase screen against NU6300 at a single concentration of 0.5 µM both in the standard assay format and following a 4 hour pre-incubation in the presence of NU6300. Kinases which have very low activity after the 4 hour incubation so that results might not be wholly reliable are boxed in salmon. Kinases where the activity after a 4 hour pre-incubation is < 50% that in the standard assay format are highlighted in red.

A further test addresses CK2 (Homo sapiens, UniProt P68400). As to conditions: CK2, 1µM; read-out: %Remaining activity at 1µM NU6300. As to the method: as §1, §2, §3
In another test the target is T1, ERK8 (Homo sapiens, UniProt Q8TD08).
T1 sequence (Q8TD08 1-544): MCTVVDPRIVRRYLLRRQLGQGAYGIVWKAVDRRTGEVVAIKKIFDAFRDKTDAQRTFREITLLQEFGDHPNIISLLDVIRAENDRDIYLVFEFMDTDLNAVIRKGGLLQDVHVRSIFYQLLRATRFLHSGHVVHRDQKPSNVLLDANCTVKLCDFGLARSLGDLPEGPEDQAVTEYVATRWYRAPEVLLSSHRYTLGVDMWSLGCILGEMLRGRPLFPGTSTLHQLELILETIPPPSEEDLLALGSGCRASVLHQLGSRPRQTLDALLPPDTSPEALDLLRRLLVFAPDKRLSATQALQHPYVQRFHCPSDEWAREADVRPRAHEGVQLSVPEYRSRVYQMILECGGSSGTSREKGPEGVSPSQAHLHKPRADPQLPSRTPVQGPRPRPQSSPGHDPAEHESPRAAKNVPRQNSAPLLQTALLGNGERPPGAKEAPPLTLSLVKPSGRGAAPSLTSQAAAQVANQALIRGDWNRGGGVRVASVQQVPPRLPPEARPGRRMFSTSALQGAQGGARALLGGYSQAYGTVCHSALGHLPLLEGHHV
To be noted: ERK8, 1µM; read-out: %Remaining activity at 1µM NU6300. As to the method: as §1, §2, §3

A further test deals with GSK3β (Homo sapiens, UniProt P49841). As to conditions: read-out: %Remaining activity at 1µM NU6300. The method, then: as §1, §2, §3
A further test concerns the target HIPK2 (Homo sapiens, UniProt Q9H2X6). As to conditions: HIPK2, 1µM; read-out: %Remaining activity at 1µM NU6300. The method, then: as §1, §2, §3
A further test concerns the target IRAK1 (Homo sapiens, UniProt P51617). To be noted: IRAK1, 1µM; read-out: %Remaining activity at 1µM NU6300. As to the method:
as §1, §2, §3

The target of a further test is MARK3 (Homo sapiens, UniProt P27448). To be noted: MARK3, 1µM; read-out: %Remaining activity at 1µM NU6300. The method, then: as §1, §2, §3
Sequence of MARK3 (P27448 whole entry): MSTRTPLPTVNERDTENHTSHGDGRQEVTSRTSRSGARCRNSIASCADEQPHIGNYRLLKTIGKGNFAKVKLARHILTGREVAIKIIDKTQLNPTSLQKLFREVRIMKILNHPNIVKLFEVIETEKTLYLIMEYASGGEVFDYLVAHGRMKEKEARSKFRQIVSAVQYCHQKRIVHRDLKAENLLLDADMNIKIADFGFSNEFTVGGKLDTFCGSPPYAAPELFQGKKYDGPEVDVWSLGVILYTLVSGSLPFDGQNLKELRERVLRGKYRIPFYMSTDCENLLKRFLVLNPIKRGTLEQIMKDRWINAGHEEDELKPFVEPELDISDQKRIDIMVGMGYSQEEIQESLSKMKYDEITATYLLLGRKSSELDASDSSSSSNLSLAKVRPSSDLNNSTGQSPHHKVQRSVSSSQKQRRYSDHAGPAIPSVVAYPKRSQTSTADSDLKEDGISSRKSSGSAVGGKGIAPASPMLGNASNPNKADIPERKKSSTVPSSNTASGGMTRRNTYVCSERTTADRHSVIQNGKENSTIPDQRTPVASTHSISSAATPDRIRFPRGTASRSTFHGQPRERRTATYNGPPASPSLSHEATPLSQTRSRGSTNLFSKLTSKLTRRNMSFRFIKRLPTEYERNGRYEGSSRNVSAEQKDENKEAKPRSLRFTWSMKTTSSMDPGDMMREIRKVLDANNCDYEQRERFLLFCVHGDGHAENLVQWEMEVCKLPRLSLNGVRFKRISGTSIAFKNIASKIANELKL
Another test has as its target MINK1 (Homo sapiens, UniProt Q8N4C8). To be noted: MINK1, 1µM; read-out: %Remaining activity at 1µM NU6300. The method, then:
as §1, §2, §3

For the next test, the target named is PAK2 (Homo sapiens, UniProt Q13177). As to conditions: PAK2, 1µM; read-out: %Remaining activity at 1µM NU6300. As to the method:
as §1, §2, §3

The target of a further test is PKA (Homo sapiens, UniProt P17612). To be noted: read-out: %Remaining activity at 1µM NU6300. The method, then:
as §1, §2, §3

A further test concerns the target RSK1 (Homo sapiens, UniProt Q15418). As to conditions: RSK1, 1µM; read-out: %Remaining activity at 1µM NU6300. The method, then:
as §1, §2, §3

A further test concerns the target SIK3 (Homo sapiens, UniProt Q9Y2K2). As to conditions: SIK3, 1µM; read-out: %Remaining activity at 1µM NU6300. As to the method: as §1, §2, §3
A further test deals with TIE2 (Homo sapiens, UniProt Q02763). To be noted: TIE2, 1µM; read-out: %Remaining activity at 1µM NU6300. The method, then: as §1, §2, §3
In another test the target is p38α MAPK (Homo sapiens, UniProt Q16539). As to conditions: read-out: %Remaining activity at 1µM NU6300. The method, then:
as §1, §2, §3

Sequence of HIPK2 (Q9H2X6 whole entry): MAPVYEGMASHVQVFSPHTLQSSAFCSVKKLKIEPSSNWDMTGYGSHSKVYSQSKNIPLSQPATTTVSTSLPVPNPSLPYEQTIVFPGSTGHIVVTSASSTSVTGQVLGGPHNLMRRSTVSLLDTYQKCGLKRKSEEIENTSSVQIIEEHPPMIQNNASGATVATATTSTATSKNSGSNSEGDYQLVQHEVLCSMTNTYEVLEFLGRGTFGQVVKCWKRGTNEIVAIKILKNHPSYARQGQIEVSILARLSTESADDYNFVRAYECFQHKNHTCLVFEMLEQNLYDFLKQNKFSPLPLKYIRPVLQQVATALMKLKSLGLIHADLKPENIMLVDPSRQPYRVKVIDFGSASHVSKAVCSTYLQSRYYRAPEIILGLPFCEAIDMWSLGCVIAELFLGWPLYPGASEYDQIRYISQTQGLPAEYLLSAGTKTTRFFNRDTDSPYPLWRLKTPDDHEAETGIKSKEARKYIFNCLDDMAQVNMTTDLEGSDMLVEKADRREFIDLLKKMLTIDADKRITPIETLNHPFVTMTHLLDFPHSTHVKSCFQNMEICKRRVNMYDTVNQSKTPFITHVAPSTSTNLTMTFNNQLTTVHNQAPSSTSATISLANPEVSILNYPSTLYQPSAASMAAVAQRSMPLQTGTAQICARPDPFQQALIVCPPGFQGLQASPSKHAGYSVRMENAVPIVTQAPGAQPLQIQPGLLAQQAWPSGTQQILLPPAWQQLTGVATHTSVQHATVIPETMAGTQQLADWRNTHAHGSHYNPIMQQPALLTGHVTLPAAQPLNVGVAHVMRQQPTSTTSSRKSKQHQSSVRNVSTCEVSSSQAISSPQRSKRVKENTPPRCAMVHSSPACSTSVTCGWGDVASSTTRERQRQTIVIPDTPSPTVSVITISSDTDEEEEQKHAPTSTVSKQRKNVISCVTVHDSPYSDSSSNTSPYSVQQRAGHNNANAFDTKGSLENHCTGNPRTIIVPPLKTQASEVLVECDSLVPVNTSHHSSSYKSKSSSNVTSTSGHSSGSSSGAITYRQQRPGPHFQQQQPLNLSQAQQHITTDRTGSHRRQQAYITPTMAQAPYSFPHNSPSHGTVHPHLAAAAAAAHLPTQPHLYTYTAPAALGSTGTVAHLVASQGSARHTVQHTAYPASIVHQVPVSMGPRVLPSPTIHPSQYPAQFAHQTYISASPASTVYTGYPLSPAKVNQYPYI
Sequence of RSK1 (Q15418 whole entry): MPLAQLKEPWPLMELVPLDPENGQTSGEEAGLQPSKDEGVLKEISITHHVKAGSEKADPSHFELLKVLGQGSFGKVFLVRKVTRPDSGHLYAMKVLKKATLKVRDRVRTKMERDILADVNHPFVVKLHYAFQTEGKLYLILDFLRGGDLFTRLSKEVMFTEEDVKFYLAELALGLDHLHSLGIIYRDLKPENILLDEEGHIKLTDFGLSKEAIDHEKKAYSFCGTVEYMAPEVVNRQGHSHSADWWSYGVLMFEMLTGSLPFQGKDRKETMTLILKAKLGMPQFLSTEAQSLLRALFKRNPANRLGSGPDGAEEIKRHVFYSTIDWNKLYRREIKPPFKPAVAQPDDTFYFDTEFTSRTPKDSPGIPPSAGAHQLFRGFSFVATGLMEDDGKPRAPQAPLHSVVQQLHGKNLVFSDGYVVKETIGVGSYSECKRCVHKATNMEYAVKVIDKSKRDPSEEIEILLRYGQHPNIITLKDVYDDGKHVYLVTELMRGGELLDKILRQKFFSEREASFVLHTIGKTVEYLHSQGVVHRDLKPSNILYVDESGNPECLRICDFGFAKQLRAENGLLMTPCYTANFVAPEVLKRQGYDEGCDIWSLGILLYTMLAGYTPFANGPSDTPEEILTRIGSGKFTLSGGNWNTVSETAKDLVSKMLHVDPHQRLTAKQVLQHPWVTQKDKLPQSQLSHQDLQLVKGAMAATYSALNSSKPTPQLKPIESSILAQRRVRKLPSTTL
Sequence of SIK3 (Q9Y2K2 whole entry): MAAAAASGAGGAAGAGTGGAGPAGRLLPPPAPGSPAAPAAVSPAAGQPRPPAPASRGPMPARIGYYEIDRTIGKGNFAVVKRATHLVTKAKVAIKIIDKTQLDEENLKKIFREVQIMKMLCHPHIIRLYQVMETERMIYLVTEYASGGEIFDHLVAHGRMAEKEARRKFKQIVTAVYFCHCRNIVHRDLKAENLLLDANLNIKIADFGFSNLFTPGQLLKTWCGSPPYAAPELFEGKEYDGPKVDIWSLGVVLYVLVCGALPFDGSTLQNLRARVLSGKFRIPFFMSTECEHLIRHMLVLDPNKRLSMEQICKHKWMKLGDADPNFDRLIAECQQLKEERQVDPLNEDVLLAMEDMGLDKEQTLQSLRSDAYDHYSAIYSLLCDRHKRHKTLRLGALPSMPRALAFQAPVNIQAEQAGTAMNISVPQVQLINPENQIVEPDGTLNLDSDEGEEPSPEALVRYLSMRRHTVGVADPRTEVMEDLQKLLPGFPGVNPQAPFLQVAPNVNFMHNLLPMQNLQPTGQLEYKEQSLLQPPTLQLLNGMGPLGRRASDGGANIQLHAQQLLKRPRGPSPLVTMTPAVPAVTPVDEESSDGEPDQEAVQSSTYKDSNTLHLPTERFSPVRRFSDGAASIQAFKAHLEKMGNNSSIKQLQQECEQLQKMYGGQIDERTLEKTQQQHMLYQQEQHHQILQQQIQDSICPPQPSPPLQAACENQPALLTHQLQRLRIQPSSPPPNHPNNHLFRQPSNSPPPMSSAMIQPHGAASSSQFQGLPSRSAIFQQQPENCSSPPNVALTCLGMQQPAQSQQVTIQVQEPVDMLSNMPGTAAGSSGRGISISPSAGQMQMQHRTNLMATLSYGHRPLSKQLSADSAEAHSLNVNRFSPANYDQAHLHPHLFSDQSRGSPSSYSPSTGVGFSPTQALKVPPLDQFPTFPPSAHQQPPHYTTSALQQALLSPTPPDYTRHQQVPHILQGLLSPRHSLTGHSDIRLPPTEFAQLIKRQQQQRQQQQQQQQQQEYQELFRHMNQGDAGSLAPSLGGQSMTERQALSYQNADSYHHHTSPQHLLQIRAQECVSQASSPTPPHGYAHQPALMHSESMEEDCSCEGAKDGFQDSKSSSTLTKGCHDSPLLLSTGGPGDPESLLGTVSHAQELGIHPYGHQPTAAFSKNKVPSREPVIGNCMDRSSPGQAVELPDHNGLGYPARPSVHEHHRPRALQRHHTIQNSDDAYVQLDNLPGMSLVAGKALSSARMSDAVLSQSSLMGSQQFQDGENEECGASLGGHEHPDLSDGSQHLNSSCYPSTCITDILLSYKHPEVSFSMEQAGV
Sequence of IRAK1 (P51617 whole entry): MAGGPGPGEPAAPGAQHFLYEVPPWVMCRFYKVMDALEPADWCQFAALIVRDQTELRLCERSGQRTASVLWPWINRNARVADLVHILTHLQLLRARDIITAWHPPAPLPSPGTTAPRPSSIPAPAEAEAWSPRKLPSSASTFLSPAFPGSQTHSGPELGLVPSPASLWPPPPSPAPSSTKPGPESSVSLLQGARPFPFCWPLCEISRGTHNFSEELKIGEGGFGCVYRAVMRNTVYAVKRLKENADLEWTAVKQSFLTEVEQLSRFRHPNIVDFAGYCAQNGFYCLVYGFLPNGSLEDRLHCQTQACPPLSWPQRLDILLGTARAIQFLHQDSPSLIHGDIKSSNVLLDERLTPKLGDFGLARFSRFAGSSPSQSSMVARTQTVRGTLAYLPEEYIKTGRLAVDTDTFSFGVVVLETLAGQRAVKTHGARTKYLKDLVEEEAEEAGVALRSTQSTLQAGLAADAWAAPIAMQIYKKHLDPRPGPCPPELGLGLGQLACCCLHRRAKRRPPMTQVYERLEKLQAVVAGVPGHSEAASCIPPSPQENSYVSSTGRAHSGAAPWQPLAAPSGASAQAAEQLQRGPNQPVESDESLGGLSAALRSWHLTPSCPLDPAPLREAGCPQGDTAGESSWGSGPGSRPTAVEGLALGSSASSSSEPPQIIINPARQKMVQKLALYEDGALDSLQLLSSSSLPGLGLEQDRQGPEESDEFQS
Sequence of p38α MAPK (Q16539 whole entry): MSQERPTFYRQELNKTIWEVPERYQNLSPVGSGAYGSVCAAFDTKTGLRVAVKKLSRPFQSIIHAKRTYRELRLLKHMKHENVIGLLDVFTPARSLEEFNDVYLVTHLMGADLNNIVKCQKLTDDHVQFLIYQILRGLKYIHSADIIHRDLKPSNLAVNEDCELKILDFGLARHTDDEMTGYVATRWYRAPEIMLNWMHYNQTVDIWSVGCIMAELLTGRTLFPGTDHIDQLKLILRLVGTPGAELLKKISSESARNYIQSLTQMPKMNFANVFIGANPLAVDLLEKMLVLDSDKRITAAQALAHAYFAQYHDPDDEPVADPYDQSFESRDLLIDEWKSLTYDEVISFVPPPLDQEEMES

Regarding `C=CS(=O)(=O)c1ccc(Nc2nc(OCC3CCCCC3)c3nc[nH]c3n2)cc1` [NU6300, 6-(cyclohexylmethoxy)-N-(4-(vinylsulfonyl)phenyl)-9H-purin-2-amine], the remaining activity at 1 µM on CDK9-Cyclin T1 came out at 87%; on CK2, 91%; on ERK8, 24%; on GSK3β it was 42%; on HIPK2, 61%; on IRAK1, 37%. The remaining activity at 1 µM on MARK3 amounted to 71%; on MINK1, 69%; on PAK2, 92%; on PKA, 88%; at RSK1, 50%; at SIK3, 76%. The remaining activity at 1 µM on TIE2 is 122%; at p38α MAPK it was 81%.
